Source: patent publication US20240408162A1, “Use of Extract from Morus alba L. in the Preparation of a Medicament for Preventing and/or Treating a Hepatobiliary Disease” (BEIJING WEHAND-BIO PHARMACEUTICAL CO., LTD, priority 2022, published 2024)

Experiments:
HepG2 hepatocytes = assay: Palmitic acid-treated HepG2 hepatocytes (non-alcoholic fatty liver model), triglyceride and cholesterol by kit; format: cell-based; details: PA-treated HepG2, 24 h, DNJ 20 μg/ml
Description: HepG2 hepatocytes were cultured overnight in a 6-well plate at a seeding density of 2×10^5 cells/ml after digestion. HepG2 cells were treated with palmitic acid (PA) to create a non-alcoholic fatty liver model, with 0.25% BSA treatment as a control. Cells in the model groups were separately administrated with extracts from Morus alba L. (designed to be 25 μg/ml (containing 17 μg/ml DNJ) based on total alkaloids (SZ-A)) obtained from Example 1, 20 μg/ml DNJ, 5 μg/ml FAG, or 5 μg/ml DAB, and cultured for 24 h. Cells were lysed with the lysis solution containing Triton x-100 after removal of the supernatant, and the triglyceride (TG) and cholesterol (TC) in hepatocytes were detected using a kit.

3T3-L1 adipocytes = assay: Secretion of adiponectin in 3T3-L1 adipocytes (ELISA of supernatant); format: cell-based; details: DNJ 80, 40, 20 μg/ml; summary statement
Description: Reduced adiponectin levels were independent risk factors for NAFLD and liver dysfunction. Adiponectin might activate liver AMPK, inhibit lipid synthesis, and promote lipid oxidation. Adiponectin might also affect inflammation of hepatic macrophages and fibrosis of hepatic stellate cells. 3T3-L1 pre-adipocytes were cultured in the medium containing calf serum and seeded into a 6-well plate at a density of 2×10^4 cells/ml. […] The supernatant was collected after culture for 8 days, and the concentration of adiponectin in the supernatant was detected using an ELISA kit.

## OC[C@H]1NC[C@H](O)[C@@H](O)[C@@H]1O [DNJ, 1-deoxynojirimycin]
HepG2 hepatocytes; SZ-A 25 μg/ml (based on total alkaloids)
  triglyceride (TG) level in hepatocytes: reduce the triglyceride level
HepG2 hepatocytes; SZ-A 25 μg/ml
  cholesterol (TC) level in hepatocytes: reduced the cholesterol level
3T3-L1 adipocytes
  concentration of adiponectin: increase the concentration of adiponectin
